Measured values as given in EP4813985A1, “PREPARATION OF QUINAZOLINONE DERIVATIVE AS KINASE INHIBITOR, AND USE THEREOF” (Xizang Haisco Pharmaceutical Co., Ltd., priority 2023, dated 2025).
Read-outs that look alike come from different tables or passages of the source.

Experiments:
A375 cells = assay: A375 cell proliferation inhibition test; assay type: cell-based; details: Homo sapiens, A-375, 72 h
Protocol: A375 cells (ATCC, CRL-1619) were cultured in DMEM complete medium (+10% FBS) in a CO2 incubator at 37°C for 48 h. The cells were trypsinised and counted, and then the density was adjusted to 1.67 × 10^4 cells/mL. 90 µL (1500 cells) of cells were inoculated into each well of a 96-well transparent bottom plate, and the plate was transferred to a CO2 incubator and the cells were cultured at 37°C overnight. After the cells were incubated overnight, 10 µL of the diluted compound (final concentration starting from 10 µM, 3-fold dilution, 11 concentrations) was added to each well using a multi-channel pipette. The […] control was a serum-free medium containing DMSO. After mixing evenly, the cells were placed in a CO2 incubator at 37°C for 72 h. After the incubation, the CellCounting-Lite®2.0 kit detection solution (Vazyme, DD1101-03) was taken out and returned to room temperature. 100 µL of CellCounting-Lite2.0 detection solution was added to each well, the plate was sealed with a sealing film, and the plate was placed on a shaker for shaking for 15 min (the whole process should be kept away from light). The Luminescence module of the microplate reader (BMG LRBTECH) was used to detect the fluorescence signal value LUM of each well. The formula Inhibition rate% = ((LUM Solvent−LUM Compound)/(LUM Solvent))∗100% [formula] was used to calculate the inhibition rate of the compound. The Graphpad software log(inhibitor) vs. response -- Variable slope (four parameters) equation was used to perform fitting analysis and calculate the IC50value of the sample. The ordinate of the data is the percentage of inhibition rate, and the abscissa is the logarithm of the sample concentration (Log10).

[1] = Pharmacokinetic test in mice; assay type: in vivo, ICR mice; details: i.g. (10 mg/kg), relative to Control compound 1
[2] = Liver microsomal stability test (monkey liver microsomal model); assay type: in vitro ADME; details: monkey liver microsomes, 1 µM test compound, NADPH, 37°C
Protocol: In this experiment, liver microsomes of five species, including human, monkey, dog, rat and mouse, were used as in vitro models to evaluate the metabolic stability of the test compound.
At 37°C, 1 µM of the test compound was co-incubated with microsomal protein and coenzyme NADPH. At given time points of the reaction (5 min, 10 min, 20 min, 30 min, and 60 min), the reaction was terminated by adding ice-cold acetonitrile containing an internal standard. The LC-MS/MS method was used to measure the concentration of the test compound in the sample. T1/2 was calculated using the ln value of the percentage of drug remaining in the incubation system and the incubation time. In addition, the intrinsic clearance in liver microsomes CLint(mic) and the intrinsic clearance in liver CLint(Liver) were further calculated. Table 6 Results of test compounds in monkey liver microsomal model

[3] = Pharmacokinetic test in mice; assay type: in vivo, ICR mice; details: mouse, plasma; for Vd: read-out: Vdss
Protocol: 3.1 Experimental animals: Male ICR mice, 20-25 g, 6 mice/compound, purchased from Chengdu Dossy Experimental Animals Co., Ltd.
3.2 Experimental design: On the day of the experiment, the ICR mice were randomly grouped according to their body weights. The animals were fasted with water available for 12-14 h one day before the administration, and were fed 4 h after the administration. Table 3.1 Administration information
vehicle for intravenous administration: 5% DMA + 5% Solutol + 90% Saline; vehicle for intragastric administration: 0.5% MC
Before and after administration, 0.06 mL of blood was taken from the orbit under isoflurane anaesthesia and placed in an EDTAK2 centrifuge tube. The tube was centrifuged at 5000 rpm at 4°C for 10 min, and plasma was collected. The blood sampling time points for both the intravenous administration group and intragastric administration group were 0 min, 5 min, 15 min, 30 min, 1 h, 2 h, 4 h, 7 h, 24 h, and 48 h. Before analysis and detection, all samples were stored at -80°C, and the samples were quantitatively analysed by LC-MS/MS. Table 3.2 Pharmacokinetic parameters of test compounds in plasma of mice

[4] = Pharmacokinetic test in rats; assay type: in vivo, SD rats; details: rat, plasma; for Vd: read-out: Vdss
Protocol: 5.1 Experimental animals: Male SD rats, about 220 g, 6-8 weeks old, 6 rats/compound, purchased from Chengdu Dossy Experimental Animals Co., Ltd.
5.2 Experimental design: On the day of the experiment, the SD rats were randomly grouped according to their body weights. The animals were fasted with water available for 12-14 h one day before the administration, and were fed 4 h after the administration.
5.3 Test compounds: compounds in the examples and control compounds. Table 5.1 Administration information
Before and after administration, 0.1 ml of blood was taken from the orbit under isoflurane anaesthesia and placed in an EDTAK2 centrifuge tube. The tube was centrifuged at 5000 rpm at 4°C for 10 min, and plasma was collected. Blood sampling time points for the intravenous administration group: 0 min, 5 min, 15 min, 30 min, 1 h, 2 h, 4 h, 6 h, 8 h, 24 h, and 48 h; blood sampling time points for the intragastric administration group: 0 min, 5 min, 15 min, 30 min, 1 h, 2 h, 4 h, 6 h, 8 h, 24 h, and 48 h. Before analysis and detection, all samples were stored at -80°C, and the samples were quantitatively analysed by LC-MS/MS. Table 5.2 Pharmacokinetic parameters of test compounds in plasma of rats

BRAFV600E = molecular target: T1, BRAFV600E (Homo sapiens, UniProt P15056, V600E); assay: BRAFV600E enzyme activity test (ADP-Glo, MEK1K97R substrate); assay type: biochemical; details: Inhibitory activities of compounds on BRAFV600E
T1 construct: purchased ABCAM ab204154
Protocol: BRAFV600E (ABCAM, ab204154) and MEK1K97R (USBio, M2865-06J) proteins were diluted at an appropriate dilution factor using 1×Assay buffer (PH = 7.4 Tris-HCl buffer, supplemented with 10 mM MgCl2) such that the final concentration of BRAFV600E was 10 ng/µL and the final concentration of substrate MEK1K97R was 1 µM. 1 µL of BRAFV600E, 1 µL of compound serial dilution (final concentration starting from 2 µM, 5-fold dilution, 8 concentrations), and 6 µL of Assay buffer were pipetted to a 384-well reaction plate with a capacity of 20 µL. The plate was pre-incubated in a constant temperature incubator at 37°C for 30 min. 1 µL of 200 µM ATP and 1 µM MEK1 K97R were added to the reaction wells corresponding to the compound incubation, and mixed evenly by shaking, and preincubation was performed in a constant temperature incubator at 37°C for 60 min for enzymatic reaction. After the reaction was completed, 5 µL of the above reaction product was pipetted to another 384-well plate, and 5 µL of formulated ADP-Glo™ Reagent (Promega, V9101) was added and mixed evenly by pipetting, and then the plate was placed at room temperature for 40 min. 10 µL Kinase Detection Reagent was added to the 384-well plate and incubated at room temperature for 40 min. Finally, a microplate reader (BMG LRBTECH) was used and Luminescence module was selected to detect the LUM fluorescence value of each well (the gain value was fixed at 3600), and the formula Inhibition rate% = (1−(LUM Compound−LUM Background)/(LUM Solvent−LUM Background))∗100% [formula] was used to calculate the inhibition rate of the compound on BRAFV600E. The Graphpad software log(inhibitor) vs. response -- Variable slope (four parameters) equation was used to perform fitting analysis and calculate the IC50value of the sample.

[5] = Inhibitory activities of compounds on A375 cells, read-out: IC50/nM
[6] = A375 cells, values in text, read-out: IC50

T1 sequence (P15056 416-766 V600E limits assumed): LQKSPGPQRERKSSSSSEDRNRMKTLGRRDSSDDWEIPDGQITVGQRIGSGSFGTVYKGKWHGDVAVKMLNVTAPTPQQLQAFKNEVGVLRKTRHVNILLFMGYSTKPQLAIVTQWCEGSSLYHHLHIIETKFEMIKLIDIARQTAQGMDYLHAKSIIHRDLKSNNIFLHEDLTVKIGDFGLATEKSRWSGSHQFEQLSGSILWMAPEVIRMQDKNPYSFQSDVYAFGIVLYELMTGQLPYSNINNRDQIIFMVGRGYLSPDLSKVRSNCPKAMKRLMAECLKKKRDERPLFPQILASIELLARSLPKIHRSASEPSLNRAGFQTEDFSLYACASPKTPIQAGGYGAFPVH

## N#Cc1c(NS(=O)(=O)N2CCC(=CF)C2)ccc(F)c1Oc1ccc2ncn(CC(F)F)c(=O)c2c1 (single isomer, unassigned) [Compound 15]
A375 cells; [5]
  IC50: ≤ 10 nM

## Cc1nnc2c3cc(Oc4c(F)ccc(NS(=O)(=O)N5CC6(CCC6)C5)c4C#N)ccc3ncn12 [Compound 1]
A375 cells; [5]
  IC50: ≤ 10 nM

## N#Cc1c(NS(=O)(=O)N2CC3(CCC3)C2)ccc(F)c1Oc1ccc2ncc(N3CCOCC3)nc2c1 [Compound 2]
A375 cells; [5]
  IC50: 10 to 50 nM

## C=C1CN(S(=O)(=O)Nc2ccc(F)c(Oc3ccc4ncn(CC(F)F)c(=O)c4c3)c2C#N)C1 [Compound 3]
[1]
  Fold change in brain-blood ratio relative to control compound: 10.8
[2]
  Percentage of drug remaining after 60 min of incubation: 56.1%
[3]; iv, i.v. (2.5 mg/kg)
  AUC(0-t): 225 µg·h/mL
  clearance: 0.186 mL/min/kg
  half-life: 8.68 h
  Vd: 0.112 L/kg
[3]; po, i.g. (10 mg/kg)
  bioavailability: 84.5%
  AUC(0-t): 762 µg·h/mL
  half-life: 10.3 h
[4]; iv, i.v. (2.5 mg/kg)
  AUC(0-t): 41 µg·h/mL
  clearance: 0.091 mL/min/kg
  half-life: 19.1 h
  Vd: 0.126 L/kg
[4]; po, i.g. (10 mg/kg)
  bioavailability: 62.8%
  AUC(0-t): 1030 µg·h/mL
  half-life: 13.9 h
A375 cells; [6]
  IC50: 0.14 nM
A375 cells; [5]
  IC50: ≤ 10 nM
BRAFV600E
  IC50: ≤ 10 nM

## CC(C)=C1CN(S(=O)(=O)Nc2ccc(F)c(Oc3ccc4ncn(CC(F)F)c(=O)c4c3)c2C#N)C1 [Compound 4]
A375 cells; [5]
  IC50: 10 to 50 nM

## C=C1CN(S(=O)(=O)Nc2ccc(F)c(Oc3ccc4ncn(CCF)c(=O)c4c3)c2C#N)C1 [Compound 5]
A375 cells; [5]
  IC50: ≤ 10 nM

## C=C1CCN(S(=O)(=O)Nc2ccc(F)c(Oc3ccc4ncn(CC(F)F)c(=O)c4c3)c2C#N)C1 [Compound 6]
[1]
  Fold change in brain-blood ratio relative to control compound: 24.9
[3]; in vivo, iv, i.v. (2.5 mg/kg)
  AUC(0-t): 148 µg·h/mL
  clearance: 0.282 mL/min/kg
  half-life: 6.77 h
  Vd: 0.118 L/kg
[3]; in vivo, po, i.g. (10 mg/kg)
  AUC(0-t): 373 µg·h/mL
  half-life: 4.47 h
A375 cells; [5]
  IC50: ≤ 10 nM

## CC=C1CN(S(=O)(=O)Nc2ccc(F)c(Oc3ccc4ncn(CC(F)F)c(=O)c4c3)c2C#N)C1 [Compound 7]
[1]
  Fold change in brain-blood ratio relative to control compound: 10.5
[2]
  Percentage of drug remaining after 60 min of incubation: 48.2%
[3]; iv, i.v. (2.5 mg/kg)
  AUC(0-t): 228 µg·h/mL
  clearance: 0.171 mL/min/kg
  half-life: 12.8 h
  Vd: 0.156 L/kg
[3]; po, i.g. (10 mg/kg)
  bioavailability: 90.6%
  AUC(0-t): 825 µg·h/mL
  half-life: 10.7 h
[4]; iv, i.v. (2.5 mg/kg)
  AUC(0-t): 376 µg·h/mL
  clearance: 0.109 mL/min/kg
  half-life: 14.2 h
  Vd: 0.096 L/kg
[4]; po, i.g. (10 mg/kg)
  bioavailability: 81.3%
  AUC(0-t): 1220 µg·h/mL
  half-life: 13.5 h
A375 cells; [6]
  IC50: 0.66 nM
A375 cells; [5]
  IC50: ≤ 10 nM
BRAFV600E
  IC50: ≤ 10 nM

## C=C1CC(Cn2cnc3ccc(Oc4c(F)ccc(NS(=O)(=O)N5CC6(CCC6)C5)c4C#N)cc3c2=O)C1 [Compound 9]
A375 cells; [5]
  IC50: 10 to 50 nM
